Measurements: ChEMBL document CHEMBL1154206, “Bioactive iridoid glucosides from the fruit of Gardenia jasminoides” (J Nat Prod, 2009)
Calls of active or inactive are those of the source. The calls are words filed in the database; no cut-off is given here.

What follows are molecules tested on Drosophila (assay: Short term memory enhancement in human Abeta42 transgenic Drosophila alzheimers disease model dosed for 6 days by pavlovian olfactory learning assay after 8 days).
Format: functional, organism-based
In the case of `COC(=O)C1=CO[C@@H](O[C@@H]2O[C@H](CO)[C@@H](O)[C@H](O)[C@H]2O)[C@@H]2C(COC(=O)CCC(=O)O)=CC[C@H]12`, the Activity is reported as “Active”. `COC(=O)C1=CO[C@@H](O[C@@H]2O[C@H](CO)[C@@H](O)[C@H](O)[C@H]2O)[C@@H]2C(CO)=CC[C@H]12` was tested, and the Activity was “Active”. With `COc1cc(/C=C/C(=O)OC[C@H]2O[C@@H](OCC3=CC[C@H]4[C@@H]3COC(=O)[C@@H]4CO)[C@H](O)[C@@H](O)[C@@H]2O)cc(OC)c1O` the Activity was “Active”. In the case of `COC(=O)C1=CO[C@@H](O[C@@H]2O[C@H](COC(C)=O)[C@@H](O)[C@H](O)[C@H]2O)[C@@H]2C(CO)=CC[C@H]12`, the Activity is reported as “Active”. In the case of `COC(=O)C1=CO[C@@H](O[C@@H]2O[C@H](COC(=O)/C=C/c3ccc(O)cc3)[C@@H](O)[C@H](O)[C@H]2O)[C@@H]2C(CO)=CC[C@H]12`, the Activity is reported as “Active”. In the case of `COC(=O)C1=CO[C@@H](O[C@@H]2O[C@H](COC(=O)/C=C/c3cc(OC)c(O)c(OC)c3)[C@@H](O)[C@H](O)[C@H]2O)[C@@H]2C(CO)=CC[C@H]12`, the Activity is reported as “Active”. With `COc1cc(/C=C/C(=O)OC[C@H]2O[C@@H](OC[C@H]3C(=O)OC[C@@H]4C(CO)=CC[C@@H]43)[C@H](O)[C@@H](O)[C@@H]2O)cc(OC)c1O` the Activity was “Active”. For `COC(=O)C1=CO[C@@H](O[C@@H]2O[C@H](CO)[C@@H](O)[C@H](O)[C@H]2O)[C@@H]2C(COC(C)=O)=CC[C@H]12`, the Activity was “Active”.
